Where “and” joins values, the source holds several entries; their conditions need not be identical. Identical values can stand only once.
T1: ΔFOSB/JUND bZIP redox switch (ΔFOSB Cys172/JUND Cys285) (Mus musculus, UniProt P13346)
T1 sequence (P13346 153-219 isoform P13346-2): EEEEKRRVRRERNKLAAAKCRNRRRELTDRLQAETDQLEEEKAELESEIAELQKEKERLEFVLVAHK
T1 sequence (P15066 260-326 partner limits assumed): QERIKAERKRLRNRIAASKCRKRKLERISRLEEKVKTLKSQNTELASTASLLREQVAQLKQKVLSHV

T2: ΔFOSB bound to genomic DNA in hippocampus of APP mice (Mus musculus, UniProt P13346)
T2 sequence (P13346 1-237 isoform P13346-2): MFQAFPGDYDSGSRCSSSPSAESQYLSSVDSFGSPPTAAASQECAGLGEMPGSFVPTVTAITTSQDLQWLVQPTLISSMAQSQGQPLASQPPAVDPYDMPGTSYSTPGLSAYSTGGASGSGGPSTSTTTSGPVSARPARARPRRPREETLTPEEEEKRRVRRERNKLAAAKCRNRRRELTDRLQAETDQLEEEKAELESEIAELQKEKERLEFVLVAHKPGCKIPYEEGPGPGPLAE

T3: ΔFOSB homomer (full-length) (mouse, UniProt P13346-2 2-237)
T3 sequence: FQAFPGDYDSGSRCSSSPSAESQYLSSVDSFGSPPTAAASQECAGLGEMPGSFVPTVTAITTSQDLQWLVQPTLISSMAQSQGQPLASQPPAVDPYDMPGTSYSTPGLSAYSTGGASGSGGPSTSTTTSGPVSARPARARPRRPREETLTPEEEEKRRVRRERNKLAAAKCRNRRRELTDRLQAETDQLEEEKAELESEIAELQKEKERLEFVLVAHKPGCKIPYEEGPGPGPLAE

T4: ΔFOSB (full-length);JUND (full-length) (mouse;mouse, UniProt P13346-2;P15066 2-237;2-341, |)
T4 sequence 1: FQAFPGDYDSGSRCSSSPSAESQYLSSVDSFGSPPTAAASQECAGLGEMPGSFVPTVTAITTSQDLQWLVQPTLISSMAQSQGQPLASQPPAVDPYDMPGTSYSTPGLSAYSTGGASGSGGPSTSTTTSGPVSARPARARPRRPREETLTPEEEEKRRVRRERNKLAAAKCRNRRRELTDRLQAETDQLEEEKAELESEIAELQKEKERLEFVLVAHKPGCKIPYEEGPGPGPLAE
T4 sequence 2: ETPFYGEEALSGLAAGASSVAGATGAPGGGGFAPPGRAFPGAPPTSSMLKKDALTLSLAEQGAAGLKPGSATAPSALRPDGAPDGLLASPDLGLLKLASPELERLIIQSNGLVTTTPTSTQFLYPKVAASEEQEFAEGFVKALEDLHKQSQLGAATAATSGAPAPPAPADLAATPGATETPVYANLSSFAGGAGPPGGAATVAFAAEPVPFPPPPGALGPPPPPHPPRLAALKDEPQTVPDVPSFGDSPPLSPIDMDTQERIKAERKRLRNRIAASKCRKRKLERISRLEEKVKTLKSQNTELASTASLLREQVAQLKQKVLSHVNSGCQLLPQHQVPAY


How the values were obtained:
[1] = biological target: T1, ΔFOSB/JUND bZIP redox switch (ΔFOSB Cys172/JUND Cys285); assay: Redox switch closure of ΔFOSB/JUND bZIP assessed by non-reducing SDS-PAGE; assay type: biochemical
[2] = biological target: T2, ΔFOSB bound to genomic DNA in hippocampus of APP mice; details: three days into the dorsal hippocampus of APP mice; cited from earlier work
[3] = biological target: T3, ΔFOSB homomer (full-length); assay: fluorescence polarization
[4] = biological target: T4, ΔFOSB (full-length);JUND (full-length); assay: fluorescence polarization

Row | Molecule | effect on closure of the redox switch under oxidation ([1]; 500 μM compound, 100 μM diamide, non-reducing SDS-PAGE) | promotion of oxidation / redox switch closure by compound alone ([1]; 0.5 mM compound, no diamide, SDS-PAGE) | reduction in number of ΔFOSB-bound AP-1 sites (CUT&RUN) [2] | binding result [3] | binding result [4]
1 | NC1=NN(c2ccc(Oc3ccccc3)c(S(=O)(=O)O)c2)C(=O)C1 [JPC0661] | None of the three compounds (YL0441, JPC0661, and QB0365) prevented closure of the redox switch | did not oxidize the protein to induce closure of the redox switch | 60% and ~ 60% |  | 
2 | TMR-cdk5 (cdk5 oligo) (dsDNA) DNA 1: CGTCGGTGACTCAAAACAC DNA 2: GTGTTTTGAGTCACCGACG |  |  |  | binds | binds

— publication PMC13288968 (ACS chemical neuroscience, 2026)
